Results published in patent publication US20110281928A1, “Process for the preparation of zofenopril and its pharmaceutically acceptable salts thereof” (GLENMARK GENERICS LTD, priority 2009, published 2011).
Where a name gives a salt, the structure may show the parent alone.

Experiments:
Format in all cases: physicochemical
[1] = Particle size distribution by laser diffraction
From the text: The D10, D50, and D90 values are useful ways for indicating a particle size distribution. D90 is a size value where at least 90 percent of the particles have a size smaller than the stated value. Likewise D10 refers to 10 percent of the particles having a size smaller than the stated value. D50 refers to at least 50 percent of the particles having a size smaller than the stated value and D [4,3] value refers to a mean particle size. Methods for determining D10, D50, D90 and D [4,3] include those using laser light diffraction with equipment sold by Malvern Instruments ltd.
As used herein, “crystalline particles” means any combination of single crystals, aggregates and agglomerates. As used herein “Particle Size Distribution (P.S.D.)” means the cumulative volume size distribution of equivalent spherical diameters as determined by laser diffraction at 1 bar dispersive pressure in a SympatecHelos equipment. “Mean particle size distribution, i.e., d (0.5)” correspondingly, means the median of said particle size distribution.

[2] = Specific surface area by B.E.T. nitrogen absorption
From the text: Specific surface area is defined in units of square meters per gram (m^2/g). It is usually measured by nitrogen absorption analysis. In this analysis, nitrogen is absorbed on the surface of the substance. The amount of the absorbed nitrogen (as measured during the absorption or the subsequent desorption process) is related to the surface area via a formula known as the B. ET. formula. BET Surface Area Analyser Model SAA-2000, specifically designed for BET_Surface Area Analysis.
The Specific Surface Area is expressed in meters square per gram of a sample. It is a measure of area covered by Nitrogen gas adsorbed in a mono-layer form.

Bulk and tapped density = conditions: Example 5 product
[3] = Solubility in organic solvents (statement)

Question: Which results are given for `C[C@H](CSC(=O)c1ccccc1)C(=O)N1C[C@@H](Sc2ccccc2)C[C@H]1C(=O)O` [zofenopril calcium, (4S)-N-[3-(Benzoylsulfanyl)-2(S)-methylpropionyl]-4-(phenylsulfanyl)-L-proline calcium salt]?
Answer: Particle size distribution d 10 ([1]; Example 5 product): 3.902 μ; Particle size distribution d 50 ([1]; Example 5 product): 12.088 μ; Particle size distribution d90 ([1]; Example 5 product): 33.858 μ; Mean particle size distribution d (0.5) ([1]; crystal particles, description): 12.088 μm; Particle size distribution d (0.1) ([1]; crystal particles, description): 3.902 μm; Particle size distribution d (0.9) ([1]; crystal particles, description): 33.858 μm; Specific surface area by B.E.T ([2]; Example 5 product): 14.13 m^2/g; Specific surface area, as measured by B.E.T. ([2]; crystal particles, description): about 14.13 m^2/gm; Bulk density (Tapped) (Bulk and tapped density): 0.282 gm/ml; Bulk density (untapped) (Bulk and tapped density): 0.201 gm/ml; Solubility in organic solvents [3]: insoluble
